Experimental data from patent US4330558A, “Pharmaceutical composition and method for treating peripheral orthostatic hypotension” (Sumitomo Chemical Company, Limited, priority 1980, dated 1982).
Like-named read-outs stand apart in the source and are kept apart here.

Experiments:
[1] = Comparison of effectiveness of L-isomer and DL-isomer in the pharmacological tests; format: in vivo; details: L-isomer vs DL-isomer
Description: In general, threo-DOPS exists as optical isomers and there are the L- and D-isomers as well as the racemic DL-isomer. The term "threo-DOPS" used herein means DL-threo-DOPS and L-threo-DOPS.

[2] = test system: aromatic L-amino acid decarboxylase; details: in the living body; cited from earlier work
[3] = test system: patients with FAP; format: in vivo, human; details: 600 mg oral
Description: (2) Oral administration test of DL-threo-DOPS
The test was carried out by administering orally 600 mg of DL-threo-DOPS to nine persons (4-normal persons and 5 FAP patients). Plasma norepinephrine levels and blood pressure were determined.
In the graphs A to C of FIG. 2, the abscissa axes indicate time (hrs.) and the ordinate axes indicate plasma norepinephrine level (pg/ml), change in maximum blood pressure (mmHg) and minimum blood pressure (mmHg), respectively. The results are expressed as mean±S.E.

[4] = test system: patients with FAP; test: Intravenous drip infusion test of DL-threo-DOPS in normal persons and FAP patients (pulse rate, blood pressure); format: in vivo, human; details: 200 mg i.v. drip infusion over 2 hours
Description: (1) Intravenous drip infusion test of DL-threo-DOPS The test was carried out by administering 200 mg of DL-threo-DOPS in 400 ml of isotonic sodium chloride solution over 2 hours to four persons (2 normal persons and 2 FAP patients) by intravenous drip infusion (1.7 mg/min.). Changes in pulse rate and blood pressure were determined. In the graphs A to D of FIG. 1, the abscissa axes indicate time (min.) and the ordinate axes indicate changes in pulse rate, maximum blood pressure (mmHg) and minimum blood pressure (mmHg), and drip infusion rate of DL-threo-DOPS (mg/min.), respectively. In the graphs A to C, the symbol o indicates normal subjects (2 persons) and .cndot., FAP patients (2 persons).

[5] = test system: patients suffering from various kinds of orthostatic hypotension; test: Effect of intravenous DL-threo-DOPS on blood pressure in patients suffering from various kinds of orthostatic hypotension; format: in vivo, human; details: i.v. drip infusion
Description: Under the same condition as in FAP, DL-threo-DOPS was administered intravenously to patients suffering from familial diabetes mellitus, aortitis syndrome, idiopathic orthostatic hypotension, acute pan-dysautonomia and ectopic pineal tumor, respectively. Changes in pulse rate and blood pressure were determined. In the graphs A to D of FIGS. 4, 5, 6, 7 and 8, the abscissa axes indicate time (min.) and the ordinate axes indicate change in pulse rate, maximum blood pressure (mmHg) and minimum blood pressure (mmHg), and drip infusion rate of DL-threo-DOPS (mg/min.), respectively.

[6] = test system: FAP patients; test: Long term oral administration of DL-threo-DOPS in FAP patients (simple blind test, 4 weeks); format: in vivo, human; details: 1.2 g/day oral
Description: (3) Long term oral administration of DL-threo-DOPS The clinical trial was carried out according to a simple blind test procedure. […] The patients refrained from taking any drug for one week before administration of DL-threo-DOPS. After 4 weeks of administration period of DL-threo-DOPS,the patients were given placebos containing lactose. […] In the graphs A to F of FIG. […] The results are expressed as mean±S.E.

[7] = in a certain case; cited from earlier work
[8] = Acute toxicity, LD50 in mice; format: in vivo; details: mouse, in vivo
Description: (§1) Toxicity of threo-DOPS is extremely low. LD50 value in mice is more than 10 g/kg (p.o.) and about 10 g/kg (i.p.).

[9] = test system: mice; test: Acute toxicity, LD50 in mice; format: in vivo
Description: as §1

[10] = test system: orthostatic hypotension; test: Clinical effect of threo-DOPS on blood pressure, summary of the pharmacological tests; format: in vivo, human
[11] = Clinical observation of side effects; format: in vivo, human
[12] = summary of the pharmacological tests

## N[C@H](C(=O)O)[C@H](O)c1ccc(O)c(O)c1 [L-threo-DOPS, L-threo-3,4-dihydroxyphenylserine]
[1]
  amount for the same effect relative to the DL-isomer: same effect as the DL-isomer in one half the amount
  effectiveness relative to the DL-isomer: about twice as effective as the DL-isomer
[2]
  conversion by aromatic L-amino acid decarboxylase: converted to (-) norepinephrine

## N[C@H](C(=O)O)[C@H](O)c1ccc(O)c(O)c1 (relative stereo) [DL-threo-DOPS, DL-threo-3,4-dihydroxyphenylserine]
[3]; FAP patients (FIG. 2)
  change in plasma norepinephrine level: almost parallel with that of blood pressure
  time at which plasma norepinephrine level was restored to the normal level after oral administration: 5 h
[3]; inferred from the results
  absorption after oral administration: absorbed in the intestine
  conversion by aromatic L-amino acid decarboxylase after oral administration: converted to (-) norepinephrine
[3]; FAP patients (5)
  hypertensive action: gradual and sustained hypertensive action
  time of peak of hypertensive action after oral administration: 5 h
[3]; normal subjects (4)
  change in blood pressure: no significant change in blood pressure was observed
[4]; FAP patients (2)
  blood pressure response: a sensitive hypertensive response was observed
  time course of the response: gradual and sustained
[4]; normal persons (2)
  change in blood pressure: did not change either pulse rate or blood pressure
  change in pulse rate: did not change either pulse rate or blood pressure
[5]; acute pan-dysautonomia, person
  pressor response: Pressor response was observed
[5]; aortitis syndrome, person
  pressor response: Pressor response was observed
[5]; conclusion from cases (1) to (5)
  selectivity for type of orthostatic hypotension: selective effect on the "peripheral" type of orthostatic hypotension
[5]; ectopic pineal tumor, person
  pressor response: Pressor response was not observed
[5]; familial diabetes mellitus, patient A (asymptomatic orthostatic hypotension)
  pressor response: showed pressor response
[5]; idiopathic orthostatic hypotension, person
  pressor response: Pressor response was observed
[6]
  activity of daily living: restored
  dizziness and giddiness caused by orthostatic hypotension: mitigated
  side effect: No side effect was observed
[6]; three patients suffering from orthostatic hypotension, 3 and 5 hours after administration
  blood pressure at 11 a.m. and 1 p.m.: a significant rise of blood pressure was observed

## NC(C(=O)O)C(O)c1ccc(O)c(O)c1 (centres unmarked) [DOPS]
[7]
  effect on blood pressure: anti-hypertensive action

## N[C@H](C(=O)O)[C@H](O)c1ccc(O)c(O)c1 (relative stereo) [threo-DOPS, threo-3,4-dihydroxyphenylserine]
[8]; ip
  LD50: ~10000 mg/kg
[8]; po
  LD50: > 10000 mg/kg
[9]
  toxicity: extremely low
[10]; FAP as model of dysautonomia syndrome
  effect on orthostatic hypotension: effective on orthostatic hypotension, inducing substantial and sustained elevation of blood pressure
[10]; [12]
  effect on blood pressure of normal subjects and of patients suffering from central orthostatic hypotension: does not have a significant effect on blood pressure
  effect on peripheral orthostatic hypotension: selective effect on "peripheral" orthostatic hypotension
[11]
  side effect observed clinically: no side effect is observed clinically
